Source: ChEMBL document CHEMBL6074674, “Development of Novel Silicon-Based Hydrophobic Tags (SiHyT) for Targeted Proteins Degradation” (J Med Chem, 2024)
pIC50: −log10 of the molar value. Active and inactive are the calls of the source. The rule behind the calls is not given here.

How the values were obtained:
[1] = test system: E3 ubiquitin-protein ligase RNF149/Epidermal growth factor receptor (Homo sapiens), P00533+Q8NC42 [UNDEFINED MUTATION]; experiment: SiHyT-mediated degrader activity at RNF149/EGFR mutant in human HCC827 cels assessed as induction of EGFR degradation at 0.1 uM cells incubated in serum-free media for 8 hrs followed by incubation with compound for 24 hrs by western blot analysis; type: cell-based
Sequence of E3 ubiquitin-protein ligase RNF149/Epidermal growth factor receptor (Homo sapiens), P00533+Q8NC42 [UNDEFINED MUTATION] (P00533 whole entry, looked up, stated change not applied): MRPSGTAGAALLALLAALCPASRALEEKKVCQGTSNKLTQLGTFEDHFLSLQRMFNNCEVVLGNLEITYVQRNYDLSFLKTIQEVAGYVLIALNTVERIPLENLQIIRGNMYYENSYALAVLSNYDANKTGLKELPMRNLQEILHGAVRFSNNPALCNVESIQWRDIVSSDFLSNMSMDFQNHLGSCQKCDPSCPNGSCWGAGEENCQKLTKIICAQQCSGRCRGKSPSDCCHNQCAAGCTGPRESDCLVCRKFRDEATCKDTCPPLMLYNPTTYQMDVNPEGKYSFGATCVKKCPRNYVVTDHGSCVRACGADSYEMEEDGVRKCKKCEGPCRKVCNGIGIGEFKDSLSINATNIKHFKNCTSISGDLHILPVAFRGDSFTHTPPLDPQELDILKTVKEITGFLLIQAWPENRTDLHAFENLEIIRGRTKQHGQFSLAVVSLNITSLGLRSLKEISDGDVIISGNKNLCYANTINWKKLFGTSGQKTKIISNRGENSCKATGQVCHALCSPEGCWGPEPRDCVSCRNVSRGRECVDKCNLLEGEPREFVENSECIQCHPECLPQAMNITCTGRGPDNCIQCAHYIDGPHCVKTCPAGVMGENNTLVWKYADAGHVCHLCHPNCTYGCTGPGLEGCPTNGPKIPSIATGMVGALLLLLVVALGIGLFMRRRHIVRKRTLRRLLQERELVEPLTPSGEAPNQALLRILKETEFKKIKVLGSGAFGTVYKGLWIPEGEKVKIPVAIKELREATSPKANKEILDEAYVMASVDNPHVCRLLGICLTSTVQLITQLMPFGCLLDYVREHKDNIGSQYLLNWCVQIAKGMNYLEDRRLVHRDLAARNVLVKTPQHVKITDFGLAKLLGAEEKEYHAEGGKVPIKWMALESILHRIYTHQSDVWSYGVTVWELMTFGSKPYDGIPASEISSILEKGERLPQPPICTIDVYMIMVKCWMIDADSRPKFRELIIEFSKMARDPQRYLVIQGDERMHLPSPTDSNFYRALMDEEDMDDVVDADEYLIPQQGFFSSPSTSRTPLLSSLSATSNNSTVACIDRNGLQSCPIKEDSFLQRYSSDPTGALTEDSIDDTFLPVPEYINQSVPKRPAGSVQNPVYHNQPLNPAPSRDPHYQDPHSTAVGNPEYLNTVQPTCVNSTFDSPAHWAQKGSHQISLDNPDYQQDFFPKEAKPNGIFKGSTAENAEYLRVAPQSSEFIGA
Sequence of E3 ubiquitin-protein ligase RNF149/Epidermal growth factor receptor (Homo sapiens), P00533+Q8NC42 [UNDEFINED MUTATION] (Q8NC42 whole entry, looked up, stated change not applied): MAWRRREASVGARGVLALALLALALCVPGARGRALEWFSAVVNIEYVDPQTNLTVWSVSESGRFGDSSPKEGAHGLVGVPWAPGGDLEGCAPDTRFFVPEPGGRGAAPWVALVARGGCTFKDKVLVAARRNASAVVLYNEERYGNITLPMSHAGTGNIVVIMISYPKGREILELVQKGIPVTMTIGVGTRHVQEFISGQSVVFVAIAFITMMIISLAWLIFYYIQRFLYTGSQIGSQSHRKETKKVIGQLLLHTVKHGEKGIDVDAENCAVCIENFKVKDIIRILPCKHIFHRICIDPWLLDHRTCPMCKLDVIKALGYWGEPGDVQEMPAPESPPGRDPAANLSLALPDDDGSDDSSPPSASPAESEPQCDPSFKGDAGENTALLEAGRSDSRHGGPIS

[2] = (§1) SiHyT-mediated degrader activity at RNF149/EGFR mutant in human PC-9 cells assessed as induction of EGFR degradation cells incubated in serum-free media for 8 hrs followed by incubation with compound for 24 hrs by western blot analysis; type: cell-based
PC-9 [3] = experiment: as §1; type: cell-based
PC-9 [4] = experiment: SiHyT-mediated degrader activity at RNF149/EGFR mutant in human PC-9 cells assessed as induction of EGFR degradation by measuring decrease in EGFR level at 2 uM measured after 9 hrs by western blot analysis; type: cell-based
[5] = test system: E3 ubiquitin-protein ligase RNF149/Epidermal growth factor receptor (Homo sapiens), P00533+Q8NC42 [UNDEFINED MUTATION]; experiment: SiHyT-mediated degrader activity at RNF149/EGFR mutant in human HCC827 cells assessed as induction of EGFR degradation by measuring decrease in EGFR level at 1 uM measured after 24 hrs by western blot analysis; type: cell-based
[6] = test system: E3 ubiquitin-protein ligase RNF149/Epidermal growth factor receptor (Homo sapiens), P00533+Q8NC42 [UNDEFINED MUTATION]; experiment: SiHyT-mediated degrader activity at RNF149/EGFR mutant in human HCC827 cells assessed as induction of EGFR degradation by measuring decrease in EGFR expression level at 1 uM pretreated with proteasome inhibitor, MG-132 for 4 hrs followed by incubation with compound for 24 hrs by western blot analysis; type: cell-based
[7] = test system: E3 ubiquitin-protein ligase RNF149/Epidermal growth factor receptor (Homo sapiens), P00533+Q8NC42 [UNDEFINED MUTATION]; experiment: SiHyT-mediated degrader activity at RNF149/EGFR mutant in human HCC827 cells assessed as induction of EGFR degradation by measuring decrease in half-time of EGFR at 1 uM incubated for 6 to 24 hrs in presence of protein synthesis inhibitor, cycloheximide by western blot analysis; type: cell-based; settings: time 6-24 hrs
PC-9 [8] = experiment: SiHyT-mediated degrader activity at RNF149/EGFR mutant in human PC-9 cells assessed as increase in EGFR ubiquitination level at 2 uM pretreated with MG132 for 2 hrs followed by incubation with compound for 9 hrs by immunoprecipitation based western blot analysis; type: cell-based
[9] = test system: E3 ubiquitin-protein ligase RNF149/Epidermal growth factor receptor (Homo sapiens), P00533+Q8NC42 [UNDEFINED MUTATION]; experiment: SiHyT-mediated degrader activity at […] mutant in human HCC827 cells assessed as decrease in EGFR expression level at 2 uM measured after 12 hrs by proteomics analysis; type: cell-based
PC-9 [10] = experiment: Antiproliferative activity against human PC-9 cells assessed as decrease in cell survival measured after 72 hrs by CCK-8 assay; type: functional, cell-based; settings: PC-9, 72 h
HCC827 = experiment: Induction of cell cycle arrest in human HCC827 cells assessed as increase in cell accumulation at G1 phase at 0.5 to 2 uM incubated for 24 hrs by propidium iodide staining based flow cytometry; type: functional; settings: dose 0.5-2 µM
PC-9 [11] = experiment: Inhibition of cell invasion in human PC-9 cells at 0.5 to 1 uM incubated for 24 hrs by wound healing analysis; type: functional, cell-based; settings: dose 0.5-1 µM
PC-9 [12] = experiment: Induction of apoptosis in human PC-9 cells at 0.5 to 2 uM incubated for 48 hrs by AnnexinV-FITC/PI staining based flow cytometry; type: functional, cell-based; settings: dose 0.5-2 µM
[13] = Half life of the compound in mouse liver microsomes at 1 uM in presence of NADPH by LC-MS/MS analysis; type: ADME, Microsome
[14] = Intrinsic clearance of the compound in mouse liver microsomes at 1 uM in presence of NADPH by LC-MS/MS analysis; type: ADME, Microsome; settings: read-out: CLH
[15] = Tmax in ICR mouse at 1 mg/kg, iv by LC-MS/MS analysis; type: ADME, organism-based; settings: in vivo
[16] = AUC in ICR mouse at 1 mg/kg, iv by LC-MS/MS analysis; type: ADME, organism-based; settings: in vivo
[17] = Tmax in ICR mouse at 10 mg/kg, po by LC-MS/MS analysis; type: ADME, organism-based; settings: in vivo
[18] = AUC in ICR mouse at 10 mg/kg, po by LC-MS/MS analysis; type: ADME, organism-based; settings: in vivo
[19] = Oral bioavailability in ICR mouse at 10 mg/kg by LC-MS/MS analysis; type: ADME, organism-based; settings: in vivo
[20] = Toxicity in mouse assessed as pathological changes in heart administered for 14 days by Hematoxylin-Eosin staining based analysis; type: tissue-based; settings: in vivo, 336 h, time 14 day
[21] = Toxicity in mouse assessed as pathological changes in spleen administered for 14 days by Hematoxylin-Eosin staining based analysis; type: tissue-based; settings: in vivo, 336 h, time 14 day
[22] = Toxicity in mouse assessed as pathological changes in lungs administered for 14 days by Hematoxylin-Eosin staining based analysis; settings: in vivo, 336 h, time 14 day
[23] = Toxicity in mouse assessed as pathological changes in kidneys administered for 14 days by Hematoxylin-Eosin staining based analysis; settings: in vivo, 336 h, time 14 day
PC-9 [24] = experiment: Induction of interaction between RNF149/EGFR mutant in human PC-9 cells measured after 6 hrs by co-immunoprecipitation analysis; type: cell-based
L02 = experiment: Cytotoxicity against human LO2 cells assessed as reduction in cell viability; type: toxicity, cell-based
BEAS-2B = experiment: Cytotoxicity against human BEAS-2B cells assessed as reduction in cell viability; type: toxicity, cell-based

Activity [1]: 54.6%
DC50 [2]: 1420 nM
Activity [5]: Active
Activity [6]: inactive
Activity [7]: Active
Activity [9]: Active
half-life at 1 µM [13]: > 1 h
CLint scaled at 1 µM [14]: 21.9 mL/min/kg
Tmax [15]: 4.8 min
AUC [16]: 2164.76 ng·mL·h
Tmax [17]: 1 h
AUC [18]: 1876.65 ng·mL·h
bioavailability [19]: 8.67%
Structure (SMILES): COc1cc2ncnc(Nc3ccc(F)c(Cl)c3)c2cc1OCCn1cc(CCCO[Si](c2ccccc2)(c2ccccc2)C(C)(C)C)nn1
Activity (PC-9 [3]): Dose-dependent-effect
Activity (PC-9 [4]): Active
Activity (PC-9 [8]): Active
pIC50 (PC-9 [10]): 6.47
Activity (HCC827): Dose-dependent-effect
inhibition (PC-9 [11]): Active
Activity (PC-9 [12]): Dose-dependent-effect
Activity [20]: Non-toxic
Activity [21]: Non-toxic
Activity [22]: Non-toxic
Activity [23]: Non-toxic
Activity (PC-9 [24]): Active
Activity (L02): Toxic
Activity (BEAS-2B): Toxic
